Laboratory results taken from ChEMBL document CHEMBL3885861, “Open TG-GATES”.

Species on record: Rattus norvegicus
Assay: Open TG-GATES - Regimen: Single
Type: toxicity, organism-based, Sprague-Dawley
Set-up: regimen Single, gender Male, age 6 weeks
Details: in vivo, po, 8 mg/kg, route gavage, dose level Low; for APTT / Bas / Eos / Fbg / Hb / Ht / Lym / MCH / MCHC / MCV / Mono / Neu / PT / Plat / RBC / Ret / WBC: tissue Blood; for KIDNEY_L / KIDNEY_R / KIDNEY_TOTAL: tissue Kidney; for LIVER: tissue Liver; for A/G / ALP / ALT / AST / BUN / CRE / Ca / Cl / DBIL / GLC / IP / K / LDH / Na / PL / RALB / TBIL / TC / TG / TP / gamma-GTP: tissue Plasma

NC1=NC(=O)C(c2ccccc2)O1 (configuration not stated) [PEMOLINE]
TERMINAL_BW (3 h): 210.1 g | APTT (3 h): 15.6 s | Bas (3 h): 0% | Eos (3 h): 0.6% | Fbg (3 h): 289.6 mg/dL | Hb (3 h): 13.2 g/dL | Ht (3 h): 38.9% | Lym (3 h): 79.4% | MCH (3 h): 21.9 pg | MCHC (3 h): 34.1% | MCV (3 h): 64.2 fL | Mono (3 h): 3.2% | Neu (3 h): 16.2% | PT (3 h): 13.2 s | Plat (3 h): 112.1 x10_4/uL | RBC (3 h): 605.6 x10_4/ul | Ret (3 h): 9.3% | WBC (3 h): 89 x10_2/uL | KIDNEY_L (3 h): 0.9 g | KIDNEY_R (3 h): 0.9 g | KIDNEY_TOTAL (3 h): 1.8 g | LIVER (3 h): 9 g | A/G (3 h): 1 | ALP (3 h): 1585.2 IU/L | ALT (3 h): 44 IU/L | AST (3 h): 83 IU/L | BUN (3 h): 8.2 mg/dL | CRE (3 h): 0.2 mg/dL | Ca (3 h): 10.7 mg/dL | Cl (3 h): 106.2 meq/L | DBIL (3 h): 0.014 mg/dL | GLC (3 h): 174.2 mg/dL | IP (3 h): 7.9 mg/dL | K (3 h): 4.1 meq/L | LDH (3 h): 68.8 IU/L | Na (3 h): 139.6 meq/L | PL (3 h): 126.6 mg/dL | RALB (3 h): 2.7 g/dL | TBIL (3 h): 0.042 mg/dL | TC (3 h): 77 mg/dL | TG (3 h): 45.8 mg/dL | TP (3 h): 5.3 g/dL | gamma-GTP (3 h): 1.4 IU/L | TERMINAL_BW (6 h): 211.2 g | APTT (6 h): 15.8 s | Bas (6 h): 0% | Eos (6 h): 1% | Fbg (6 h): 309 mg/dL | Hb (6 h): 13.5 g/dL | Ht (6 h): 39.8% | Lym (6 h): 75.6% | MCH (6 h): 21.9 pg | MCHC (6 h): 33.9% | MCV (6 h): 64.6 fL | Mono (6 h): 3.4% | Neu (6 h): 19.6% | PT (6 h): 13.1 s | Plat (6 h): 112.7 x10_4/uL | RBC (6 h): 616.4 x10_4/ul | Ret (6 h): 8.9% | WBC (6 h): 81.1 x10_2/uL | KIDNEY_L (6 h): 0.9 g | KIDNEY_R (6 h): 0.9 g | KIDNEY_TOTAL (6 h): 1.8 g | LIVER (6 h): 8.7 g | A/G (6 h): 1 | ALP (6 h): 1539 IU/L | ALT (6 h): 44 IU/L | AST (6 h): 80 IU/L | BUN (6 h): 8 mg/dL | CRE (6 h): 0.2 mg/dL | Ca (6 h): 10.7 mg/dL | Cl (6 h): 104.8 meq/L | DBIL (6 h): 0.014 mg/dL | GLC (6 h): 186.2 mg/dL | IP (6 h): 9.9 mg/dL | K (6 h): 3.9 meq/L | LDH (6 h): 56.8 IU/L | Na (6 h): 140.6 meq/L | PL (6 h): 127 mg/dL | RALB (6 h): 2.8 g/dL | TBIL (6 h): 0.042 mg/dL | TC (6 h): 78.4 mg/dL | TG (6 h): 37.4 mg/dL | TP (6 h): 5.5 g/dL | gamma-GTP (6 h): 1.4 IU/L | TERMINAL_BW (9 h): 209.7 g | APTT (9 h): 15.9 s | Bas (9 h): 0% | Eos (9 h): 1% | Fbg (9 h): 319.2 mg/dL | Hb (9 h): 13.3 g/dL | Ht (9 h): 39.2% | Lym (9 h): 77.8% | MCH (9 h): 21.9 pg | MCHC (9 h): 34% | MCV (9 h): 64.2 fL | Mono (9 h): 2.8% | Neu (9 h): 18% | PT (9 h): 13.2 s | Plat (9 h): 117.5 x10_4/uL | RBC (9 h): 611 x10_4/ul | Ret (9 h): 9.2% | WBC (9 h): 91 x10_2/uL | KIDNEY_L (9 h): 0.9 g | KIDNEY_R (9 h): 0.9 g | KIDNEY_TOTAL (9 h): 1.8 g | LIVER (9 h): 7.7 g | A/G (9 h): 1 | ALP (9 h): 1372.4 IU/L | ALT (9 h): 40.6 IU/L | AST (9 h): 74.2 IU/L | BUN (9 h): 8.2 mg/dL | CRE (9 h): 0.2 mg/dL | Ca (9 h): 10.4 mg/dL | Cl (9 h): 106 meq/L | DBIL (9 h): 0.012 mg/dL | GLC (9 h): 172.2 mg/dL | IP (9 h): 9.7 mg/dL | K (9 h): 3.9 meq/L | LDH (9 h): 57.4 IU/L | Na (9 h): 140.4 meq/L | PL (9 h): 122.4 mg/dL | RALB (9 h): 2.7 g/dL | TBIL (9 h): 0.044 mg/dL | TC (9 h): 78.4 mg/dL | TG (9 h): 28.4 mg/dL | TP (9 h): 5.3 g/dL | gamma-GTP (9 h): 1.4 IU/L | TERMINAL_BW (24 h): 216.4 g | APTT (24 h): 16.8 s | Bas (24 h): 0% | Eos (24 h): 0.8% | Fbg (24 h): 274.6 mg/dL | Hb (24 h): 13 g/dL | Ht (24 h): 38.4% | Lym (24 h): 77.8% | MCH (24 h): 22.1 pg | MCHC (24 h): 33.9% | MCV (24 h): 65.2 fL | Mono (24 h): 3.4% | Neu (24 h): 17.4% | PT (24 h): 12.9 s | Plat (24 h): 118.4 x10_4/uL | RBC (24 h): 590.2 x10_4/ul | Ret (24 h): 8.1% | WBC (24 h): 88.3 x10_2/uL | KIDNEY_L (24 h): 0.9 g | KIDNEY_R (24 h): 0.9 g | KIDNEY_TOTAL (24 h): 1.9 g | LIVER (24 h): 10 g | A/G (24 h): 1 | ALP (24 h): 1622.2 IU/L | ALT (24 h): 43 IU/L | AST (24 h): 70.2 IU/L | BUN (24 h): 15.2 mg/dL | CRE (24 h): 0.2 mg/dL | Ca (24 h): 11 mg/dL | Cl (24 h): 105 meq/L | DBIL (24 h): 0.018 mg/dL | GLC (24 h): 177.8 mg/dL | IP (24 h): 8.2 mg/dL | K (24 h): 3.9 meq/L | LDH (24 h): 61.8 IU/L | Na (24 h): 142.2 meq/L | PL (24 h): 133.8 mg/dL | RALB (24 h): 2.8 g/dL | TBIL (24 h): 0.03 mg/dL | TC (24 h): 76 mg/dL | TG (24 h): 69.4 mg/dL | TP (24 h): 5.6 g/dL | gamma-GTP (24 h): 1 IU/L
